{"source": "patent US20020187484A1", "about": "“Molecular break lights probes for detecting nucleotide cleavage” (priority 2000, published 2002)", "assay_type_in_all_cases": "biochemical", "key": {"break light B": {"system": "break light B", "assay": "Calicheamicin cleavage of break light B", "details": "calicheamicin with DTT"}, "[1]": {"system": "supercoiled pBlusecript plasmid DNA", "assay": "Calicheamicin-induced cleavage of supercoiled plasmid DNA, protection by CalC (agarose gel)", "protocol": "Prevention of cleavage by calicheamicin—protection by CalC was assessed. […] To test this theory, preliminary assays were performed with supercoiled pBlusecript plasmid DNA (“pBS”) as the template, and dithiothreitol (“DTT”) as the reductive initiator. […] Then 2.5 μL 10 mM DTT stock solution was added to the assay solution, and the assay was incubated an additional 1 hour at 37° C. DNA fragmentation was assessed by electrophoresis on a 1% agarose gel stained with ethidium bromide.\nTo test this theory, assays were performed with supercoiled pblusecript plasmid DNA (“pBS”) as the template, and dithiothreitol (“DTT”) as the reductive initiator. […] 2.5 μL 10 mM DTT stock solution was added to the assay solution, and the assay was incubated an additional 1 hour at 37° C.\nDNA fragmentation was assessed by electrophoresis on a 1% agarose gel stained with ethidium bromide."}, "break light A": {"system": "break light A", "assay": "Molecular break light assay: cleavage of break light A by enediynes and Fe^+2-dependent agents", "protocol": "Samples were analyzed with a FluoroMax-2 spectrofluorometer equipped with DataMax for Windows (Instruments S. A., Inc.; Edison, N.J.) and the temperature controlled (30° C., unless otherwise noted) by a Haake Circulator DC10. All samples were filtered prior to analysis and analyzed via a timebase scan (λex=485 nm, λEm=517 nm) in a Suprasil quartz cuvette (10 mm path) fitted with a magnetic stirring bar in a total volume of 2 mL. […] Total cleavage of the labeled oligonucleotide, confirmed by polyacrylamide gel electrophoresis (PAGE), was defined as the maximum fluorescence emission possible under saturated cleaving conditions. Emission units were converted to the amount of labeled oligonucleotide used within a procedure, thereby equating labeled oligonucleotide degradation as a function of the emission of fluorescence.\nEnediyne antibiotics calicheamicin and esperamicin at varying concentrations (0.31, 0.78, 1.6, 3.2, 15.9, and 31.7 nM) were incubated in 40 mM Tris-HCl (pH 7.5) with 3.2 nM of the calicheamicin-specific labeled molecular break light oligonucleotide (A). DNA cleavage was initiated with the addition of 1 μL 100 mM dithiothreitol (“DTT”) to produce a final concentration of 50 μM DTT, and the reaction was monitored over 10 minutes via spectrofluorometry.\nPseudo-first order kinetic parameters were utilized to determine the initial velocities at each given enediyne concentration. Specifically, graphical representation of the data was based upon equation 2 where [A]t is the concentration of cleaved oligonucleotide at a given time (t) and [A]0 is the initial concentration of oligonucleotide in the assay. Least squares analysis gave the slope (k), or rate, which was converted to V by the relationship in equation 3. The maximum velocity achieved (Vmax) was then selected from the range of concentrations examined.\nln[A]t=−kt+ln[A]0 [Equation 2]\nBleomycin, an Fe^+2-dependent nucleic acid cleavage agent, is a natural metabolite from Streptomyces verticillus. Blenoxane (a mixture containing approximately 70% bleomycin A2 and 30% bleomycin B2) was dissolved in water & optically standardized (ε291=1.7×10^4M^−1 cm^−1). Bleomycin mediated cleavage was adapted from procedures outlined by Giloni et al. J. Biol. Chem. 256: 8608-8615 (1981). Several different concentrations of bleomycin (200 nM, 100 nM, 50 nM, 25 nM, 12.5 nM, 5 nM, and 2.5 nM) were incubated in 50 mM sodium phosphate, 2.5 mM ascorbate, at pH 7.5 and 37° C. with 3.2 nM of the molecular break light A.\nThe reaction was initiated by the addition of 65 mM Fe(II) and monitored over 5 minutes. This protocol was repeated with the addition of 5 mM sodium ascorbate to the above conditions. Pseudo-first order kinetic parameters were utilized to determine the initial velocities at each given bleomycin concentration as previously described.\nIn a first assay, 3.2 nM break light A was incubated in 40 mM Tris HCl and 2.5 mM ascorbate at 37° C. and pH 7.5. Cleavage was initiated by addition of MPE/Fe(II) in a 1.2:1 molar ratio to various concentrations. Final Fe(II) concentrations were 8 μM, 4 μM, 2 μM, 1 μM, 500 nM, 250 nM, and 125 nM.\nIn a second assay, 32 nM molecular break light A was incubated in 40 mM Tris and 2.5 mM sodium ascorbate at pH 7.5 and 37° C. Cleavage was initiated by addition of MPE/Fe(II) in a 1.2:1 molar ratio to various concentrations. Final Fe(II) concentrations were 50 nM, 125 nM, 250 nM, 500 nM, 1 μM, and 2 μM.\nIn a third assay, 32 nM break light A (calicheamicin-specific molecular break light oligonucleotide) was incubated in 40 mM Tris and 2.5 mM sodium ascorbate at pH 7.5 and 37° C."}}, "note": "Marks after values point to notes of the source that are not given here."}
{"smiles": "CCN[C@H]1CO[C@@H](O[C@H]2[C@H](O[C@H]3C#C/C=C/C#C[C@@]4(O)CC(=O)C(NC(=O)OC)=C3/C4=C\\CSSSC)O[C@H](C)[C@@H](NO[C@H]3C[C@H](O)[C@H](SC(=O)c4c(C)c(I)c(O[C@@H]5O[C@@H](C)[C@H](O)[C@@H](OC)[C@H]5O)c(OC)c4OC)[C@@H](C)O3)[C@@H]2O)C[C@@H]1OC", "note": "[Calicheamicinγ1^l, calicheamicin γ1^I]", "values": [{"measurement": "rate of cleavage of break light B compared with break light A", "setting": "break light B", "result": "rate identical to that of break light A"}, {"measurement": "DNA cleavage", "setting": "[1]; calicheamicin in the absence of DTT (lane a)", "result": "no DNA cleavage"}, {"measurement": "DNA cleavage", "setting": "[1]; presence of DTT and calicheamicin (lane c)", "result": "efficient cleavage"}, {"measurement": "detection of agent by the assay (sensitivity range)", "setting": "break light A; 3.2 nM break light A, conditions described", "result": "pM range"}, {"measurement": "maximum fluorescence upon cleavage, compared with DNaseI", "setting": "break light A; 3.2 nM break light A, excess DTT", "result": "identical to that observed with DNaseI"}, {"measurement": "Turnover (Vmax/[Agent])", "setting": "break light A; [DNA]total = 3.2 nM", "result": 0.007, "unit": "s⁻¹"}, {"measurement": "Vmax", "setting": "break light A; [DNA]total = 3.2 nM, 37° C.", "result": "0.011 ± 0.002^d nM sec^−1"}, {"measurement": "Comparison to EDTA (fold enhancement over EDTA turnover)", "setting": "break light A; [DNA]total = 3.2 nM, MPE as common agent", "result": "4.8 × 10^5 fold"}, {"measurement": "enhancement of cleavage efficiency over bleomycin", "setting": "break light A; from Table 1", "result": "~10", "unit": "fold"}]}
